Assay results reported in PubChem BioAssay AID256 (DTP/NCI, 2004).
Values joined by “and” are separate entries in the source; they are usually repeats but may differ in a detail not shown here. Identical values can stand only once. Inconclusive results and toxic doses are left out. The calls were made as follows: active = survival T/C of 150% or more; inactive = T/C below 125% in these data.

Test system: CD2F1 mice, L1210 leukemia ip, survival T/C
Test: NCI In Vivo Anticancer Drug Screen. Data for tumor model L1210 Leukemia (intraperitoneal) in CD2F1 (CDF1) mice
Settings: endpoint: mean survival time, higher = longer survival
How it was run: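 Compound-dosed mice with transplantable tumor versus matched vehicle controls; endpoint ratio T/C reported.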

[1] = dose: 100.0 mg/kg/injection, schedule: Q01DX009 (ip), vehicle: Klucel (hydroxypropylcellulose) (HPC)
[2] = dose: 100.0 mg/kg/injection, schedule: Q04DX003 (ip), vehicle: saline with Tween-80
[3] = dose: 100.0 mg/kg/injection, schedule: Q04DX003 (ip), vehicle: saline
[4] = dose: 200.0 mg/kg/injection, schedule: Q04DX003 (ip), vehicle: saline
[5] = dose: 400.0 mg/kg/injection, schedule: Q04DX003 (ip), vehicle: saline
[6] = dose: 100.0 mg/kg/injection, schedule: Q01DX009 (ip), vehicle: saline with Tween-80
[7] = dose: 200.0 mg/kg/injection, schedule: Q01DX009 (ip), vehicle: saline with Tween-80
[8] = dose: 400.0 mg/kg/injection, schedule: Q01DX009 (ip), vehicle: saline with Tween-80

Measured: T/C

COC(=O)C12OCC34C(CC5C(C)=CC(=O)C(O)C5(C)C3C(O)C1O)OC(=O)C(OC(=O)CC(C)C)C24 (stereo unspecified)
inactive: dose: 0.12 mg/kg/injection, schedule: Q01DX009 (ip), vehicle: saline + alcohol 101 % of control | dose: 0.13 mg/kg/injection, schedule: Q01DX009 (ip), vehicle: saline + alcohol 102 % of control | dose: 0.25 mg/kg/injection, schedule: Q01DX009 (ip), vehicle: saline + alcohol 100 % of control and 102 % of control | dose: 0.5 mg/kg/injection, schedule: Q01DX009 (ip), vehicle: saline + alcohol 113 % of control and 95 % of control | dose: 1.0 mg/kg/injection, schedule: Q01DX009 (ip), vehicle: saline + alcohol 101 % of control and 105 % of control | dose: 2.0 mg/kg/injection, schedule: Q01DX009 (ip), vehicle: saline + alcohol 97 % of control and 104 % of control | dose: 4.0 mg/kg/injection, schedule: Q01DX009 (ip), vehicle: saline + alcohol 104 % of control and 109 % of control

O=C(Nc1cc(S(=O)(=O)O)ccc1Oc1ccccc1Cl)Nc1cc(S(=O)(=O)O)ccc1Oc1ccccc1Cl
inactive: [1] 101 % of control | [2] 95 % of control | dose: 200.0 mg/kg/injection, schedule: Q01DX009 (ip), vehicle: Klucel (hydroxypropylcellulose) (HPC) 98 % of control | dose: 200.0 mg/kg/injection, schedule: Q04DX003 (ip), vehicle: saline with Tween-80 95 % of control | dose: 400.0 mg/kg/injection, schedule: Q01DX009 (ip), vehicle: Klucel (hydroxypropylcellulose) (HPC) 97 % of control | dose: 400.0 mg/kg/injection, schedule: Q04DX003 (ip), vehicle: saline with Tween-80 98 % of control

Clc1cc(Cl)c(OCC#CI)c(Cl)c1Cl
inactive: dose: 50.0 mg/kg/injection, schedule: Q01DX001 (ip), vehicle: carboxymethylcellulose (CMC) 100 % of control | dose: 100.0 mg/kg/injection, schedule: Q01DX001 (ip), vehicle: carboxymethylcellulose (CMC) 100 % of control | dose: 200.0 mg/kg/injection, schedule: Q01DX001 (ip), vehicle: carboxymethylcellulose (CMC) 100 % of control | dose: 400.0 mg/kg/injection, schedule: Q01DX001 (ip), vehicle: carboxymethylcellulose (CMC) 103 % of control

[I][Pt+2][I].[NH-]c1cccc(F)c1.[NH-]c1cccc(F)c1
inactive: dose: 3.13 mg/kg/injection, schedule: Q04DX003 (ip), vehicle: distilled water + Tween-80 102 % of control | dose: 6.25 mg/kg/injection, schedule: Q04DX003 (ip), vehicle: distilled water + Tween-80 102 % of control | dose: 12.5 mg/kg/injection, schedule: Q04DX003 (ip), vehicle: distilled water + Tween-80 106 % of control | dose: 25.0 mg/kg/injection, schedule: Q04DX003 (ip), vehicle: distilled water + Tween-80 106 % of control | dose: 50.0 mg/kg/injection, schedule: Q04DX003 (ip), vehicle: distilled water + Tween-80 112 % of control | dose: 100.0 mg/kg/injection, schedule: Q04DX003 (ip), vehicle: distilled water + Tween-80 118 % of control

CN(C)C(=NC#N)N(C)C
inactive: dose: 100.0 mg/kg/injection, schedule: Q01DX009 (ip), vehicle: saline 102 % of control | [3] 100 % of control | dose: 200.0 mg/kg/injection, schedule: Q01DX009 (ip), vehicle: saline 96 % of control | [4] 95 % of control | dose: 400.0 mg/kg/injection, schedule: Q01DX009 (ip), vehicle: saline 96 % of control | [5] 97 % of control

CCN1c2ccccc2Sc2cc(C=O)ccc21
inactive: dose: 50.0 mg/kg/injection, schedule: Q01DX009 (ip), vehicle: Klucel (hydroxypropylcellulose) (HPC) 97 % of control | [1] 108 % of control

C[n+]1cccc(C(=S)[S-])c1
inactive: dose: 25.0 mg/kg/injection, schedule: Q01DX009 (ip), vehicle: saline with Tween-80 102 % of control | dose: 50.0 mg/kg/injection, schedule: Q01DX009 (ip), vehicle: saline with Tween-80 101 % of control | [2] 101 % of control

NC(CS)=NC1CCCCC1
inactive: dose: 12.5 mg/kg/injection, schedule: Q04DX002 (ip), vehicle: saline with Tween-80 104 % of control | dose: 25.0 mg/kg/injection, schedule: Q04DX002 (ip), vehicle: saline with Tween-80 96 % of control

CCCCCOS(=O)(=O)c1ccc(Cl)c([N+](=O)[O-])c1
inactive: [2] 98 % of control

Nc1ccc2ccccc2c1S(=O)(=O)O
inactive: [6] 102 % of control | [7] 93 % of control | [8] 90 % of control

NC(=O)c1n[nH]c(C2OC(COP(=O)(O)O)C(O)C2O)n1 (stereo unspecified)
inactive: dose: 12.5 mg/kg/injection, schedule: Q01DX005 (ip), vehicle: water 100 % of control | dose: 25.0 mg/kg/injection, schedule: Q01DX005 (ip), vehicle: water 100 % of control | dose: 50.0 mg/kg/injection, schedule: Q01DX005 (ip), vehicle: water 96 % of control | dose: 100.0 mg/kg/injection, schedule: Q01DX005 (ip), vehicle: water 97 % of control | dose: 200.0 mg/kg/injection, schedule: Q01DX005 (ip), vehicle: water 96 % of control

CC(C)[C@](O)(C(=O)OCC1=CC[N+]2([O-])CC[C@@H](O)[C@@H]12)[C@H](C)O (stereo partly specified)
inactive: dose: 50.0 mg/kg/injection, schedule: Q01DX009 (ip), vehicle: water 116 % of control | dose: 750.0 mg/kg/injection, schedule: Q01DX001 (ip), vehicle: saline 96 % of control | dose: 1000.0 mg/kg/injection, schedule: Q01DX001 (ip), vehicle: saline 101 % of control | dose: 1250.0 mg/kg/injection, schedule: Q01DX001 (ip), vehicle: saline 97 % of control | dose: 1500.0 mg/kg/injection, schedule: Q01DX001 (ip), vehicle: saline 105 % of control | dose: 2000.0 mg/kg/injection, schedule: Q01DX001 (ip), vehicle: saline 117 % of control | dose: 3000.0 mg/kg/injection, schedule: Q01DX001 (ip), vehicle: saline 115 % of control

NCCSC1(O)C(=O)c2ccccc2-c2ccccc21 (stereo unspecified)
inactive: dose: 37.5 mg/kg/injection, schedule: Q01DX009 (ip), vehicle: saline 100 % of control | dose: 75.0 mg/kg/injection, schedule: Q01DX009 (ip), vehicle: saline 101 % of control | dose: 150.0 mg/kg/injection, schedule: Q01DX009 (ip), vehicle: saline 91 % of control

C[CH2][Sn]1([CH2]C)[O]C2C(CO)OC(n3cnc4c(N)ncnc43)C2[O]1 (stereo unspecified)
inactive: dose: 1.56 mg/kg/injection, schedule: Q01DX005 (ip), vehicle: other 100 % of control | dose: 3.13 mg/kg/injection, schedule: Q01DX005 (ip), vehicle: other 102 % of control | dose: 6.25 mg/kg/injection, schedule: Q01DX005 (ip), vehicle: other 104 % of control | dose: 12.5 mg/kg/injection, schedule: Q01DX005 (ip), vehicle: other 105 % of control and 106 % of control

CC1(C)CSC(=S)N1
inactive: dose: 2.5 mg/kg/injection, schedule: Q01DX009 (ip), vehicle: saline with Tween-80 98 % of control | dose: 5.0 mg/kg/injection, schedule: Q01DX009 (ip), vehicle: saline with Tween-80 95 % of control | dose: 5.0 mg/kg/injection, schedule: Q04DX003 (ip), vehicle: saline with Tween-80 103 % of control | dose: 10.0 mg/kg/injection, schedule: Q01DX009 (ip), vehicle: saline with Tween-80 107 % of control | dose: 10.0 mg/kg/injection, schedule: Q04DX003 (ip), vehicle: saline with Tween-80 92 % of control

CC(=O)NC1CCCC(O)C1 (stereo unspecified)
inactive: [3] 102 % of control | [4] 95 % of control | [5] 101 % of control

Clc1ccc(-c2nc3ccccc3s2)cc1
inactive: dose: 100.0 mg/kg/injection, schedule: Q01DX001 (ip), vehicle: Klucel (hydroxypropylcellulose) (HPC) 100 % of control | dose: 200.0 mg/kg/injection, schedule: Q01DX001 (ip), vehicle: Klucel (hydroxypropylcellulose) (HPC) 95 % of control | dose: 400.0 mg/kg/injection, schedule: Q01DX001 (ip), vehicle: Klucel (hydroxypropylcellulose) (HPC) 100 % of control

CNC(CCNCCc1ccccc1)CNCCc1ccccc1 (stereo unspecified)
inactive: dose: 75.0 mg/kg/injection, schedule: Q01DX001 (ip), vehicle: saline 97 % of control | dose: 150.0 mg/kg/injection, schedule: Q01DX001 (ip), vehicle: saline 107 % of control

CNC(=O)Nc1nncs1
inactive: [6] 97 % of control | [7] 104 % of control | [8] 92 % of control

O=[N+]([O-])c1cc(S(=O)(=O)c2ccc(F)c([N+](=O)[O-])c2)ccc1F
inactive: dose: 6.25 mg/kg/injection, schedule: Q01DX009 (ip), vehicle: Klucel (hydroxypropylcellulose) (HPC) 98 % of control | dose: 12.5 mg/kg/injection, schedule: Q01DX009 (ip), vehicle: Klucel (hydroxypropylcellulose) (HPC) 98 % of control | dose: 25.0 mg/kg/injection, schedule: Q01DX009 (ip), vehicle: Klucel (hydroxypropylcellulose) (HPC) 98 % of control

c1nc(N2CC2)c2cnn(C3CCCCO3)c2n1 (stereo unspecified)
inactive: dose: 25.0 mg/kg/injection, schedule: Q04DX003 (ip), vehicle: saline 96 % of control | dose: 50.0 mg/kg/injection, schedule: Q04DX003 (ip), vehicle: saline 103 % of control | [3] 100 % of control
